Data taken from PMC10713593, “Staphylococcus aureus functional amyloids catalyze degradation of β-lactam antibiotics” (Nature Communications, 2023).

Target: PSMα3 fibrils (Staphylococcus aureus, UniProt A9JX07)
Assay: LC-MS degradation of amoxicillin and penicillin G with PSMα3 fibrils or buffer
Assay type: biochemical
Parameters: key to Amoxicillin (remaining) / Degraded Amoxicillin (PSMa3) / Degraded Amoxicillin: % relative abundance from extracted ion chromatogram peak areas
Settings: for Amoxicillin (remaining) / Degraded Amoxicillin: buffer only (blank); for Amoxicillin (remaining) / Degraded Amoxicillin / Amoxicillin (PSMa3) (remaining) / Degraded Amoxicillin (PSMa3): LC-MS; for Amoxicillin (remaining) / Amoxicillin (PSMa3) (remaining): 366 peak as share of 366+384 sum; for Degraded Amoxicillin / Degraded Amoxicillin (PSMa3): 384 peak as share of 366+384 sum
Method: Amoxicillin or Penicillin solutions were dissolved in Hepes buffer (50 mM, pH 7.4) in concentration of 50 µM. PSMα3 solution in concentration of 1.54 mM was dissolved in DIW and Hepes buffer was added to the final concentration of 50 mM. The antibiotics’ solutions and preincubated PSMα3 solutions were mixed to final PSMα3 […] 180 µL organic solvent to stop the reaction (acetonitrile for Amoxicillin, methanol in the case of Penicillin). The samples were collected and injected sequentially into the LC-MS analysis.
Waters ACQUITY UPLC I-Class PLUS System coupled with high-resolution Thermo Orbitrap Exploris 240 mass-spectrometer were used for analysis of Amoxicillin and Penicillin-G over time. 1 µL of each sample was injected into the reverse-phase Acquity UPLC BEH C18 1.7 µm, 2.1 × 50 mm column (Waters) and run under a gradient program (Table S2 for Amoxicillin, Table S3 for Penicillin-G). The samples were ionized using soft electrospray ionization in positive mode and detected in a full scan mode in range from 60 to 900 m/z with a resolution of 240,000 Full Width at Half Maximum. MS was tuned according to the manufacture recommendations. Relative abundance of the intact/degraded compounds was calculated by peak area of the extracted ion chromatogram: for Amoxicillin 366.1–366.12, and degraded-Amoxicillin 384.1–384.13 m/z, Penicillin-G 335.1–335.12, for degraded-Penicillin-G 353.1–353.12, for (Figs. S13 and S14, respectively).

Sequence of PSMα3 fibrils (A9JX07 whole entry, looked up): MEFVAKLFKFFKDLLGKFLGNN

SMILES: CC1(C)S[C@@H]2[C@H](NC(=O)[C@H](N)c3ccc(O)cc3)C(=O)N2[C@H]1C(=O)O [amoxycillin]
- hydrolysis by PSMα3 fibrils versus spontaneous degradation (antibiotic 40 µM, PSMα3 fibrils 308 µM, Hepes 50 mM pH 7.4, LC-MS (Fig. 6)): significantly higher extent compared to the spontaneous degradation
- Amoxicillin (remaining) (0h): 81.4445
- Degraded Amoxicillin (0h): 18.5555
- Amoxicillin (remaining) (4h): 80.1864
- Degraded Amoxicillin (4h): 19.8136
- Amoxicillin (remaining) (8h): 79.6866
- Degraded Amoxicillin (8h): 20.3134
- Amoxicillin (remaining) (12h): 78.9455
- Degraded Amoxicillin (12h): 21.0545
- Amoxicillin (remaining) (24h): 78.1892
- Degraded Amoxicillin (24h): 21.8108
- Amoxicillin (remaining) (60h): 69.9317
- Degraded Amoxicillin (60h): 30.0683
- Amoxicillin (remaining) (72h): 68.3628
- Degraded Amoxicillin (72h): 31.6372
- Amoxicillin (remaining) (80h): 59.5525
- Degraded Amoxicillin (80h): 40.4475
- Amoxicillin (PSMa3) (remaining) (with PSMa3, 0h): 79.7112
- Degraded Amoxicillin (PSMa3) (with PSMa3, 0h): 20.2888
- Amoxicillin (PSMa3) (remaining) (with PSMa3, 4h): 78.2636
- Degraded Amoxicillin (PSMa3) (with PSMa3, 4h): 21.7364
- Amoxicillin (PSMa3) (remaining) (with PSMa3, 8h): 74.8273
- Degraded Amoxicillin (PSMa3) (with PSMa3, 8h): 25.1727
- Amoxicillin (PSMa3) (remaining) (with PSMa3, 12h): 70.3173
- Degraded Amoxicillin (PSMa3) (with PSMa3, 12h): 29.6827
- Amoxicillin (PSMa3) (remaining) (with PSMa3, 24h): 62.2462
- Degraded Amoxicillin (PSMa3) (with PSMa3, 24h): 37.7538
- Amoxicillin (PSMa3) (remaining) (with PSMa3, 60h): 12.8041
- Degraded Amoxicillin (PSMa3) (with PSMa3, 60h): 87.1959
- Amoxicillin (PSMa3) (remaining) (with PSMa3, 72h): 5.039
- Degraded Amoxicillin (PSMa3) (with PSMa3, 72h): 94.9606
- Amoxicillin (PSMa3) (remaining) (with PSMa3, 80h): 3.011
- Degraded Amoxicillin (PSMa3) (with PSMa3, 80h): 96.9892
